Reference: ChEMBL document CHEMBL1136256, “alpha1-Adrenoceptor antagonists. 5. Pyridazinone-arylpiperazines. Probing the influence on affinity and selectivity of both ortho-alkoxy groups at the arylpiperazine moiety and cyclic substituents at the pyridazinone nucleus” (Bioorg Med Chem Lett, 2003)

Tests used:
Type in all cases: tissue-based
[1] = target: Adrenergic receptor alpha-2 (Rattus norvegicus) (UniProt P22086+P19328+P22909); assay: Selectivity ratio of Alpha-2 adrenergic receptor by Alpha-1 adrenergic receptor in rat cerebral cortex
[2] = target: T1, Adrenergic receptor alpha-2 (Rattus norvegicus, UniProt P22086+P19328+P22909); assay: Binding affinity towards Alpha-2 adrenergic receptor in rat cerebral cortex using [3H]rauwolscine
T1 sequence (P22086 whole entry): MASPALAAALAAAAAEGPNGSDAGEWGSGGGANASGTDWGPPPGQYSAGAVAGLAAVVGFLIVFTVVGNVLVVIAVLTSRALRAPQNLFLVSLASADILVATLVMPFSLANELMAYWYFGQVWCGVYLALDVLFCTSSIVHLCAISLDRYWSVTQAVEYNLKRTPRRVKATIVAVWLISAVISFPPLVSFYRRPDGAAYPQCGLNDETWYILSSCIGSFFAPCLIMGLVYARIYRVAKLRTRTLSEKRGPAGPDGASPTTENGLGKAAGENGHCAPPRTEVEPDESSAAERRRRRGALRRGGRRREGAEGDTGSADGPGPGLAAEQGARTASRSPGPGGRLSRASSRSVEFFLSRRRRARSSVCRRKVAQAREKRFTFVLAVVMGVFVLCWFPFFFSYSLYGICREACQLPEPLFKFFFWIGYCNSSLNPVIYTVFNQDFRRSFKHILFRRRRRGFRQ
T1 sequence (P19328 whole entry): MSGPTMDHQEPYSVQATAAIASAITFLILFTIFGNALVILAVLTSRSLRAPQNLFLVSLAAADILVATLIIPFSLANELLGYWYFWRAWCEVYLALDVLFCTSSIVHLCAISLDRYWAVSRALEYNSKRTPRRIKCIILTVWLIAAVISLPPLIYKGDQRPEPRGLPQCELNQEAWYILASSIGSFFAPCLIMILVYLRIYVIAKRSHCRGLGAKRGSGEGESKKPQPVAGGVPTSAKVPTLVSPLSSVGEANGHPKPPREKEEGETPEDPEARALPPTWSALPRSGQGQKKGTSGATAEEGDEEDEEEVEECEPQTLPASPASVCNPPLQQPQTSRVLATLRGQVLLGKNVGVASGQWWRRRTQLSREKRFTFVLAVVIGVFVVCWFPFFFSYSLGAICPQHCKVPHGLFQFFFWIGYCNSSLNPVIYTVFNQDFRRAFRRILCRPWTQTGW
T1 sequence (P22909 whole entry): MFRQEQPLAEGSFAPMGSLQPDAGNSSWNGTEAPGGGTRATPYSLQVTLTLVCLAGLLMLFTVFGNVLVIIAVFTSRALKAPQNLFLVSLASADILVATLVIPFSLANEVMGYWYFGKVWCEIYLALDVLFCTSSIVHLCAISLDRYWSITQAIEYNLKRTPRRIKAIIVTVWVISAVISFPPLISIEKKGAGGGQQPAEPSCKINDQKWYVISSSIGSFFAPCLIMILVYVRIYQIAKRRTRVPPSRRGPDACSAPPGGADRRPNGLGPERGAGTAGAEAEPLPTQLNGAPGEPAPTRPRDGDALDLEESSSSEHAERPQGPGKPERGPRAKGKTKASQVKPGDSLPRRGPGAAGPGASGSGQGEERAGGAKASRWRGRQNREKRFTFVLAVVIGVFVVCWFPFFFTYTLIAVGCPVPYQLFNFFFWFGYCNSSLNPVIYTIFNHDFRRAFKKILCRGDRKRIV

[3] = target: T2, Adrenergic receptor alpha-1 (Rattus norvegicus, UniProt P15823+P23944+P43140); assay: Binding affinity towards Alpha-1 adrenergic receptor in rat cerebral cortex using [3H]prazosin
T2 sequence (P15823 whole entry): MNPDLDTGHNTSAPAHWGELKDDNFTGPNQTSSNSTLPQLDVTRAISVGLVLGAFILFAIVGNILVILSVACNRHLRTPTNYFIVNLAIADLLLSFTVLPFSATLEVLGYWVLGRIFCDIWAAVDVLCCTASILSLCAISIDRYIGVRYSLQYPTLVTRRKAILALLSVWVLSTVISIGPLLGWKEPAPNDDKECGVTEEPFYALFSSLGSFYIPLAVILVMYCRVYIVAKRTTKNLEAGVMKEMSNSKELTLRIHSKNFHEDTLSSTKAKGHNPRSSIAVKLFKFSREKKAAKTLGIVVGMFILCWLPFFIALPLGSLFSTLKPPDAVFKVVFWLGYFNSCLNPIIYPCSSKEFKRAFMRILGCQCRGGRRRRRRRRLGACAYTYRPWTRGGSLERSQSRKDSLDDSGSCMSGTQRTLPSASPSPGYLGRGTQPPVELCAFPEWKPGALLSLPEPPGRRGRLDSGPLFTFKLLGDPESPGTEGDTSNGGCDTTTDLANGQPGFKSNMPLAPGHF
T2 sequence (P23944 whole entry): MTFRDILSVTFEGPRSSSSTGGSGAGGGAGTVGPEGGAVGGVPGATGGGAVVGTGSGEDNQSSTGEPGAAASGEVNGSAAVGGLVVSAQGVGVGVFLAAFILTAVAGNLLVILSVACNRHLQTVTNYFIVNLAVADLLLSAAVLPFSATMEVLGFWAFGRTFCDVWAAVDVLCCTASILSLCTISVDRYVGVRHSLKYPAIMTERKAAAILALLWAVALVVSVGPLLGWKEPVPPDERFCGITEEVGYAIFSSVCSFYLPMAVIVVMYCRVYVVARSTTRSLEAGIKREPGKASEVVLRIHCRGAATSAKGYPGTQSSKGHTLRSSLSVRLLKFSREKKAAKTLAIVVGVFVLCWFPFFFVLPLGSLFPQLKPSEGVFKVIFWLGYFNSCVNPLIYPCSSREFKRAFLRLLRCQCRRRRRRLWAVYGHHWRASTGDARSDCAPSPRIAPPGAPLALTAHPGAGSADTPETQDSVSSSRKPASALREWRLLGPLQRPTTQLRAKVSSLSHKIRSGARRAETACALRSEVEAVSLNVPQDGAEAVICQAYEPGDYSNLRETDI
T2 sequence (P43140 whole entry): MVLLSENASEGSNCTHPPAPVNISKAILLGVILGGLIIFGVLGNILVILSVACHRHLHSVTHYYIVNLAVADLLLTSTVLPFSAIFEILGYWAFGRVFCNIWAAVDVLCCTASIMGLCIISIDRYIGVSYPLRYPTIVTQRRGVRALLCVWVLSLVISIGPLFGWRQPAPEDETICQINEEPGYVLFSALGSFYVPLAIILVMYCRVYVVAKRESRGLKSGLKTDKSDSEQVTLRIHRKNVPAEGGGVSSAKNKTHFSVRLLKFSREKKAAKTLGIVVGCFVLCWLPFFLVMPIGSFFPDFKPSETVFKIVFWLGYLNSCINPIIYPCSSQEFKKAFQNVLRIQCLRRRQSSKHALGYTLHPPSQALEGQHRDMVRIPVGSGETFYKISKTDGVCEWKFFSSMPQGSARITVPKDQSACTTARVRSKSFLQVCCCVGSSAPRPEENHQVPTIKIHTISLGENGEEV

[4] = target: T3, 5-hydroxytryptamine receptor 1A (Rattus norvegicus, UniProt P19327); assay: Binding affinity towards 5-hydroxytryptamine 1A receptor in rat cerebral cortex using [3H]-8-OH-DPAT
T3 sequence (P19327 whole entry): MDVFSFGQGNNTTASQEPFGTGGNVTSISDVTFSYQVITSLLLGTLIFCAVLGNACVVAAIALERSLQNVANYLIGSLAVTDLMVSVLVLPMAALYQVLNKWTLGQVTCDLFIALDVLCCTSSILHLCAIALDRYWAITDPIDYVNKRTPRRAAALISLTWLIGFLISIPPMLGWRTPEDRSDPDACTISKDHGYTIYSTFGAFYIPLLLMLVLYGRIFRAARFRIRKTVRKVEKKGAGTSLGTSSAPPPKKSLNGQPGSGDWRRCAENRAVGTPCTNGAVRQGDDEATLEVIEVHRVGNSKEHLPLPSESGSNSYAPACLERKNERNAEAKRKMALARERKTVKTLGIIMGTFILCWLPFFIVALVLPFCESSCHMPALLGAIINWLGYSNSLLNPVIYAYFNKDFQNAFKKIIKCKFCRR

[5] = target: T3, 5-hydroxytryptamine receptor 1A; assay: Binding affinity towards 5-hydroxytryptamine 1A receptor in rat cerebral cortex

For CCOc1ccccc1N1CCN(CCCCCCCn2ncc(N3CCN(CCOc4ccccc4OC)CC3)c(Cl)c2=O)CC1, the Selectivity ratio [1] was 14, the Ki [2] was 8200 pM and the Ki [3] was 580 pM.
Compound COc1ccccc1OCCN1CCN(c2cnn(CCCCCCCN3CCN(c4ccccc4OC)CC3)c(=O)c2Cl)CC1 has a Selectivity ratio [1] of 3.
In the case of CCOc1ccccc1OCCN1CCN(c2cnn(CCCCCCCN3CCN(c4ccccc4OCC)CC3)c(=O)c2Cl)CC1, the Ki [4] is reported as 220 pM, the Selectivity ratio [1] is reported as 5 and the Ki [2] is reported as 2000 pM. It also gave a Ki [3] of 430 pM.
COc1ccccc1N1CCN(CCCCCCCn2ncc(N3CCN(C(=O)c4ccco4)CC3)c(Cl)c2=O)CC1 was tested, and the Selectivity ratio [1] was 274.
CCOc1ccccc1N1CCN(CCCCCCCn2ncc(N3CCN(C(=O)c4ccco4)CC3)c(Cl)c2=O)CC1 showed a Selectivity ratio [1] of 8, a Ki [2] of 4000 pM and a Ki [3] of 500 pM.
For CC(C)Oc1ccccc1N1CCN(CCCCCCCn2ncc(N3CCN(C(=O)c4ccco4)CC3)c(Cl)c2=O)CC1, the Ki [4] was 800 pM, the Selectivity ratio [1] was 11 and the Ki [2] was 560 pM. It also gave a Ki [3] of 52 pM.
For CCOc1ccccc1OCCN1CCN(c2cnn(CCCCCCCN3CCN(c4ccccc4OC)CC3)c(=O)c2Cl)CC1, the Ki [4] was 160 pM, the Selectivity ratio [1] was 3 and the Ki [2] was 1600 pM. For the same compound, the Ki [3] was 550 pM.
CCOc1ccccc1OCCN1CCN(c2cnn(CCCCCCCN3CCN(c4ccccc4OC(C)C)CC3)c(=O)c2Cl)CC1 was tested, and the Ki [5] was 820 pM, the Selectivity ratio [1] was 12 and the Ki [2] was 3200 pM. The Ki [3] was 260 pM.
